Assay results reported in PubChem BioAssay AID328 (DTP/NCI, 2004).
Where “and” joins values, the source holds several entries; their conditions need not be identical. Identical values can stand only once. Inconclusive results and toxic doses are left out.

Tested on: BDF1 mice, P388 leukemia ip, median survival T/C
Assay: NCI In Vivo Anticancer Drug Screen. Data for tumor model P388 Leukemia (intraperitoneal) in B6D2F1 (BDF1) mice
Conditions: endpoint: median survival time, higher = longer survival
In short: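 T/C = treated-group survival ÷ vehicle-control survival; tumour transplanted into mice before dosing.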

[1] = dose: 50.0 mg/kg/injection, schedule: Q01DX009 (ip), vehicle: saline with Tween-80
[2] = dose: 100.0 mg/kg/injection, schedule: Q01DX009 (ip), vehicle: saline with Tween-80
[3] = dose: 100.0 mg/kg/injection, schedule: Q04DX003 (ip), vehicle: saline with Tween-80
[4] = dose: 200.0 mg/kg/injection, schedule: Q01DX009 (ip), vehicle: saline with Tween-80
[5] = dose: 200.0 mg/kg/injection, schedule: Q04DX003 (ip), vehicle: saline with Tween-80
[6] = dose: 400.0 mg/kg/injection, schedule: Q04DX003 (ip), vehicle: saline with Tween-80
[7] = dose: 12.5 mg/kg/injection, schedule: Q01DX009 (ip), vehicle: saline
[8] = dose: 25.0 mg/kg/injection, schedule: Q01DX009 (ip), vehicle: saline
[9] = dose: 50.0 mg/kg/injection, schedule: Q01DX009 (ip), vehicle: saline
[10] = dose: 3.13 mg/kg/injection, schedule: Q01DX009 (ip), vehicle: saline with Tween-80
[11] = dose: 6.25 mg/kg/injection, schedule: Q01DX009 (ip), vehicle: saline with Tween-80
[12] = dose: 12.5 mg/kg/injection, schedule: Q01DX009 (ip), vehicle: saline with Tween-80
[13] = dose: 6.25 mg/kg/injection, schedule: Q01DX009 (ip), vehicle: saline
[14] = dose: 100.0 mg/kg/injection, schedule: Q01DX009 (ip), vehicle: saline
[15] = dose: 200.0 mg/kg/injection, schedule: Q01DX009 (ip), vehicle: saline
[16] = dose: 25.0 mg/kg/injection, schedule: Q01DX009 (ip), vehicle: saline with Tween-80

`O=Cc1ccccc1B(O)O` was tested, and the T/C (dose: 50.0 mg/kg/injection, schedule: Q01DX009 (ip), vehicle: Klucel (hydroxypropylcellulose) (HPC)) was 108 % of control and 109 % of control, the T/C (dose: 50.0 mg/kg/injection, schedule: Q04DX003 (ip), vehicle: Klucel (hydroxypropylcellulose) (HPC)) was 92 % of control and the T/C (dose: 100.0 mg/kg/injection, schedule: Q01DX009 (ip), vehicle: Klucel (hydroxypropylcellulose) (HPC)) was 108 % of control and 118 % of control. For the same molecule, the T/C (dose: 100.0 mg/kg/injection, schedule: Q04DX003 (ip), vehicle: Klucel (hydroxypropylcellulose) (HPC)) was 100 % of control and the T/C (dose: 200.0 mg/kg/injection, schedule: Q04DX003 (ip), vehicle: Klucel (hydroxypropylcellulose) (HPC)) was 107 % of control.

With `O=C(Cn1cc(F)c(=O)[nH]c1=O)c1ccc(Cl)s1` the T/C [1] was 105 % of control, the T/C [2] was 96 % of control and the T/C [3] was 94 % of control. The T/C [4] was 103 % of control, the T/C [5] was 101 % of control and the T/C (dose: 400.0 mg/kg/injection, schedule: Q01DX009 (ip), vehicle: saline with Tween-80) was 103 % of control. The T/C [6] was 102 % of control.

With `C/C(=N/N(C)C)c1ccc(Br)cc1` the T/C [7] was 100 % of control, the T/C [8] was 100 % of control and the T/C [9] was 112 % of control. The T/C (dose: 110.0 mg/kg/injection, schedule: Q04DX003 (ip), vehicle: saline) was 109 % of control, the T/C (dose: 170.0 mg/kg/injection, schedule: Q04DX003 (ip), vehicle: saline) was 95 % of control and the T/C (dose: 255.0 mg/kg/injection, schedule: Q04DX003 (ip), vehicle: saline) was 95 % of control.

With `CC(=O)C1=C(O)C2(O)C(=O)c3c(c(C)c4ccc(C)c(O)c4c3O)CC2C(N)C1=O` (stereo not given) the T/C (dose: 1.56 mg/kg/injection, schedule: Q01DX009 (ip), vehicle: saline with Tween-80) was 109 % of control, the T/C [10] was 104 % of control and the T/C [11] was 118 % of control.

In the case of `Clc1cc(Cl)c(CBr)cc1CBr`, the T/C [10] is reported as 109 % of control, the T/C [11] is reported as 100 % of control and the T/C [12] is reported as 104 % of control.

In the case of `CC(C(Cl)c1ccccc1)S(=O)c1ccccc1` (stereo not given), the T/C [1] is reported as 108 % of control, the T/C [2] is reported as 103 % of control and the T/C [4] is reported as 105 % of control.

`CC(=O)CC(C)=O.CC(=O)CC(C)=O.Cn1ccnc1.Cn1ccnc1.[Ni]` was tested, and the T/C (dose: 12.5 mg/kg/injection, schedule: Q04DX002 (ip), vehicle: saline) was 103 % of control, the T/C (dose: 25.0 mg/kg/injection, schedule: Q04DX002 (ip), vehicle: saline) was 107 % of control and the T/C (dose: 50.0 mg/kg/injection, schedule: Q04DX002 (ip), vehicle: saline) was 119 % of control.

In the case of `COc1cc(C=Nc2ccc3c(c2)Cc2ccccc2-3)ccc1O`, the T/C (dose: 50.0 mg/kg/injection, schedule: Q04DX003 (ip), vehicle: saline sonified) is reported as 104 % of control and the T/C (dose: 200.0 mg/kg/injection, schedule: Q04DX003 (ip), vehicle: saline sonified) is reported as 95 % of control.

For `CCN(CC)c1ccc(NC(=O)Nc2ccccc2C)cc1`, the T/C [3] was 95 % of control, the T/C [5] was 95 % of control and the T/C [6] was 90 % of control.

In the case of `Cc1c2oc3c(C)c(N)cc(C(=O)NC4C(=O)NC(C(C)C)C(=O)N5CCCC5C(=O)N(C)CC(=O)N(C)C(C(C)C)C(=O)OC4C)c3nc-2c(C(=O)NC2C(=O)NC(C(C)C)C(=O)N3CCCC3C(=O)N(C)CC(=O)N(C)C(C(C)C)C(=O)OC2C)c(N)c1=O` (stereo not given), the T/C (dose: 75.0 micrograms/kg/injection, schedule: Q01DX009 (ip), vehicle: saline + alcohol) is reported as 153 % of control, the T/C (dose: 225.0 micrograms/kg/injection, schedule: Q04DX003 (ip), vehicle: saline + alcohol) is reported as 151 % of control and the T/C (dose: 450.0 micrograms/kg/injection, schedule: Q04DX003 (ip), vehicle: saline + alcohol) is reported as 90 % of control.

For `O=C(NC(Cc1ccccc1)C(=O)Oc1ccc(Cl)cc1)OCc1ccccc1` (stereo not given), the T/C (dose: 100.0 mg/kg/injection, schedule: Q04DX002 (ip), vehicle: saline with Tween-80) was 101 % of control, the T/C (dose: 200.0 mg/kg/injection, schedule: Q04DX002 (ip), vehicle: saline with Tween-80) was 94 % of control and the T/C (dose: 400.0 mg/kg/injection, schedule: Q04DX002 (ip), vehicle: saline with Tween-80) was 100 % of control and 91 % of control.

In the case of `C[N+](C)(C)CCCSC1=NCCN1`, the T/C [13] is reported as 106 % of control, the T/C [7] is reported as 107 % of control and the T/C [8] is reported as 103 % of control.

With `CCSc1ncnc2c1ncn2C1OC(CO)C(O)C1O` (stereo not given) the T/C [1] was 95 % of control, the T/C [2] was 117 % of control and the T/C [4] was 91 % of control.

With `CCCCCCCCCCCC[N+](C)(C)CCCCCC[N+](C)(C)CCCCCCCCCCCC` the T/C (dose: 3.13 mg/kg/injection, schedule: Q01DX009 (ip), vehicle: saline) was 113 % of control, the T/C [13] was 116 % of control and the T/C [7] was 94 % of control.

For `CC(C)(CCC(C)(C)NCCC#N)NCCC#N`, the T/C [9] was 97 % of control and 104 % of control, the T/C [14] was 101 % of control and the T/C (dose: 100.0 mg/kg/injection, schedule: Q04DX003 (ip), vehicle: saline) was 98 % of control. The T/C [15] was 109 % of control and 119 % of control, the T/C (dose: 200.0 mg/kg/injection, schedule: Q04DX003 (ip), vehicle: saline) was 109 % of control and the T/C (dose: 400.0 mg/kg/injection, schedule: Q01DX009 (ip), vehicle: saline) was 107 % of control. The T/C (dose: 400.0 mg/kg/injection, schedule: Q04DX003 (ip), vehicle: saline) was 114 % of control.

`COC(=O)CC1CCN(C(=O)OCc2ccccc2)C(Cc2c[nH]c3ccccc23)C1=O` (stereo not given) was tested, and the T/C (dose: 2.0 mg/kg/injection, schedule: Q01DX009 (ip), vehicle: saline) was 105 % of control, the T/C (dose: 3.0 mg/kg/injection, schedule: Q01DX009 (ip), vehicle: saline) was 109 % of control and the T/C (dose: 4.0 mg/kg/injection, schedule: Q01DX009 (ip), vehicle: saline) was 114 % of control. The T/C (dose: 8.0 mg/kg/injection, schedule: Q01DX009 (ip), vehicle: saline) was 98 % of control, the T/C (dose: 10.0 mg/kg/injection, schedule: Q01DX009 (ip), vehicle: saline) was 109 % of control and the T/C (dose: 16.0 mg/kg/injection, schedule: Q01DX009 (ip), vehicle: saline) was 102 % of control. The T/C (dose: 30.0 mg/kg/injection, schedule: Q01DX009 (ip), vehicle: saline) was 104 % of control, the T/C (dose: 32.0 mg/kg/injection, schedule: Q01DX009 (ip), vehicle: saline) was 95 % of control and the T/C (dose: 60.0 mg/kg/injection, schedule: Q01DX009 (ip), vehicle: saline) was 109 % of control.

For `S=c1nc[nH]c2c1ccc1[nH]cnc12`, the T/C (dose: 12.5 mg/kg/injection, schedule: Q01DX005 (ip), vehicle: saline with Tween-80) was 99 % of control, the T/C (dose: 25.0 mg/kg/injection, schedule: Q01DX005 (ip), vehicle: saline with Tween-80) was 100 % of control and the T/C (dose: 50.0 mg/kg/injection, schedule: Q01DX005 (ip), vehicle: saline with Tween-80) was 99 % of control and 107 % of control. The T/C (dose: 100.0 mg/kg/injection, schedule: Q01DX005 (ip), vehicle: saline with Tween-80) was 90 % of control and the T/C (dose: 200.0 mg/kg/injection, schedule: Q01DX005 (ip), vehicle: saline with Tween-80) was 104 % of control.

For `C1CC2CCC1CNC2`, the T/C [16] was 95 % of control, the T/C [1] was 100 % of control and the T/C [2] was 100 % of control.

`CC1(C)N=C(N)N=C(N)N1c1cccc(CCCCc2ccc(S(=O)(=O)F)cc2)c1` was tested, and the T/C (dose: 2.75 mg/kg/injection, schedule: Q01DX009 (ip), vehicle: saline) was 120 % of control, the T/C (dose: 8.25 mg/kg/injection, schedule: Q01DX009 (ip), vehicle: saline) was 150 % of control and the T/C (dose: 18.75 mg/kg/injection, schedule: Q01DX009 (ip), vehicle: saline) was 150 % of control.

With `CN(C)CCCOC(=O)CC(C)(C)C` the T/C (dose: 50.0 mg/kg/injection, schedule: Q01DX005 (ip), vehicle: water) was 91 % of control and the T/C (dose: 100.0 mg/kg/injection, schedule: Q01DX005 (ip), vehicle: water) was 94 % of control.

In the case of `COc1ccc2c(c1)C1(C)CCN(C)CC(C1)C2O` (stereo not given), the T/C [9] is reported as 96 % of control, the T/C [14] is reported as 89 % of control and the T/C [15] is reported as 92 % of control.

With `CO[C@@H]1C=C[C@@]23c4cc5c(cc4CN(C[C@@H]2O)[C@H]3C1)OCO5` the T/C (dose: 18.75 mg/kg/injection, schedule: Q01DX010 (ip), vehicle: saline) was 104 % of control and the T/C (dose: 37.5 mg/kg/injection, schedule: Q01DX010 (ip), vehicle: saline) was 104 % of control.

In the case of `CN(C)N=Nc1cc(Cl)cc(C(N)=O)c1Cl`, the T/C [12] is reported as 108 % of control, the T/C [16] is reported as 104 % of control and the T/C [1] is reported as 104 % of control. The T/C (dose: 88.0 mg/kg/injection, schedule: Q01DX009 (ip), vehicle: saline with Tween-80) was 108 % of control, the T/C (dose: 177.0 mg/kg/injection, schedule: Q01DX009 (ip), vehicle: saline with Tween-80) was 95 % of control and the T/C (dose: 266.0 mg/kg/injection, schedule: Q01DX009 (ip), vehicle: saline with Tween-80) was 87 % of control.
